Measurements as given in publication PMC3880103, “Cathepsin B/X is secreted by Echinometra lucunter sea urchin spines, a structure rich in granular cells and toxins” (The Journal of Venomous Animals and Toxins Including …, 2013).

System: T1, cathepsin B/X (cysteine peptidase of the spine aqueous extract)
T1 construct: gene CTSB; anti-cathepsin B bands between 60 and 80 kDa
Assay: fluorogenic substrate hydrolysis (MCA release), non-linear regression
Type: biochemical, Echinometra lucunter
Settings: crude spine extract; 100 mM ammonium acetate, pH 7.4, 30°C; preincubated with 2 mM DTT
Description: fluorogenic substrate hydrolysis (MCA release), non-linear regression on cathepsin B/X (cysteine peptidase of the spine aqueous extract)

How did the Km turn out when `Cc1cc(=O)oc2cc(NC(=O)[C@H](CCCNC(=N)N)NC(=O)OCc3ccccc3)ccc12` [Z-R-MCA, carbobenzoxy-L-arginine-7-amino-4-methylcoumarin] was run?
Its Km is 147 ± 40 µM.
